Assay results from patent US20110190265A1, “METHODS AND COMPOSITIONS FOR TREATING BACTERIAL INFECTIONS BY INHIBITING QUORUM SENSING” (priority 2008, published 2011).

Assays:
EcMTAN = EcMTAN (Escherichia coli, UniProt P0AF12); details: purified EcMTAN; cited from earlier work
[1] = tested on: autoinducer production by V. cholerae N16961; experiment: microbe, parasite or virus in culture; details: Vibrio cholerae, read-out: AI Inhibition IC50, BB170 (ai1−ai2+)
VcMTAN = target: T1, VcMTAN (Vibrio cholerae serotype O1, UniProt Q9KPI8); experiment: Inhibition of purified MTAN activity (xanthine oxidase-coupled assay); type: biochemical; details: ratio of dissociation constants of the inhibitor pair
T1 construct: residues 1-230 for each monomer of VcMTAN in the asymmetric unit; The largest part of the N-terminal 6-His tag and the last C-terminal residue, 231; made in house; host or cells: E. coli BL21 Star (pBAD-DEST49)
T1 sequence (Q9KPI8 1-231): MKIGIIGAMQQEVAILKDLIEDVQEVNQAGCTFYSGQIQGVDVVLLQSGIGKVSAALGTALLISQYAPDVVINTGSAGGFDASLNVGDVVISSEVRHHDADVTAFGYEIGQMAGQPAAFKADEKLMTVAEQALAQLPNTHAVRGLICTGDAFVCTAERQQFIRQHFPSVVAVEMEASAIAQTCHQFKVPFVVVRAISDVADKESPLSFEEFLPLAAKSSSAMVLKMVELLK
Procedure: Inhibition of purified MTAN activity. […] Reactions were monitored for 2 hours at 25° C. on a Cary 300 Bio UV-Vis spectrophotometer. Inhibition constants were obtained by fitting the data to the following expression for competitive inhibition using KaleidaGraph 3.6 (Synergy Software, Reading, Pa.):
where νs′ and νs are steady state rates in the presence, and absence of inhibitor, respectively; Km is the Michaelis constant for substrate MTA which was obtained as described above; [S] and [I] are the concentrations of MTA and inhibitor, respectively. If the concentration of inhibitor is smaller than 10-fold concentration of enzymes, the following correction was then applied:

[2] = target: MTAN activity in V. cholerae N16961 cells (Vibrio cholerae serotype O1, UniProt Q9KPI8)
human MTAP = human MTAP (Homo sapiens, UniProt Q13126); details: read-out: affinity for purified human MTAP; cited from earlier work
Sequence of human MTAP (Q13126 whole entry): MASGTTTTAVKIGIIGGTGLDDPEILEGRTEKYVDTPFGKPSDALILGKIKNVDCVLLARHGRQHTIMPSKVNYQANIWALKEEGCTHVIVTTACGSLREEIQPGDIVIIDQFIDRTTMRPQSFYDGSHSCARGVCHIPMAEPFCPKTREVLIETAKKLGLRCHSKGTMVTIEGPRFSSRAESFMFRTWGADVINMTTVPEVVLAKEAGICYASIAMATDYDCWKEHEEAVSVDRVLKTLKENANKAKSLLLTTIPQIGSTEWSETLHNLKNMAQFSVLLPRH

Sequence of EcMTAN (P0AF12 whole entry): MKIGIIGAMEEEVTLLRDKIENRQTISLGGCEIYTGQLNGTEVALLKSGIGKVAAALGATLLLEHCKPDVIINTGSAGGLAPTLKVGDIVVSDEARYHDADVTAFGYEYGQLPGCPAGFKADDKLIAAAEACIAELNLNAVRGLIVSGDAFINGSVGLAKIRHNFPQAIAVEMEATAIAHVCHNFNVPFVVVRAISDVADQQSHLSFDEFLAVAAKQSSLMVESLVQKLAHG

Structure (SMILES): Nc1ncnc2c(CN3CC(O)C(CSc4ccc(Cl)cc4)C3)c[nH]c12 (stereo not shown) [para-chloro-phenylthio-DADMe-ImmA]
- Km/Ki (EcMTAN): ~10^8

Structure (SMILES): CCSCC1CN(Cc2c[nH]c3c(N)ncnc23)CC1O (stereo not shown) [EtT-DADMe-ImmA, 5′-ethylthio-(EtT-) DADMe-ImmucillinA]
- IC50 [1]: 11 nM

Structure (SMILES): CCCCSCC1CN(Cc2c[nH]c3c(N)ncnc23)CC1O (stereo not shown) [BuT-DADMe-ImmA, 5′-butylthio-(BuT-)DADMe-ImmucillinA]
- IC50 [1]: 1.4 nM

Structure (SMILES): CSC[C@H]1N[C@@H](c2c[nH]c3c(N)ncnc23)[C@H](O)[C@@H]1O [MT-ImmA, 5′-methylthio-ImmucillinA]
- KImmA/KDADMe-ImmA (VcMTAN): 135

Structure (SMILES): CSCC1CN(Cc2c[nH]c3c(N)ncnc23)CC1O (stereo not shown) [MT-DADMe-ImmA, 5′-methylthio-(MT-) DADMe-ImmucillinA]
- increase of cellular IC50 above Ki* (diffusion barrier) [2]: ~500 fold
- Kd (human MTAP): 0.086 nM
- IC50 [1]: 0.94 nM
